The target of this assay is T1, PDE5A1 (human PDE5 from platelets) (Homo sapiens, UniProt O76074).
T1 construct: from tissue; host or cells: platelets from fresh blood of human donors (10,000 g supernatant of sonified platelets)
Kind of assay: Inhibition of type 5 phosphodiesterase (PDE5) activity, modified SPA test. The class given is biochemical. The conditions noted are these: PDE5-containing human platelet lysate, 0.5 μM cGMP, value classes, read-out: PDE5A1 inhibitory values [measured as −logIC50 (mol/l)] (converted). Here is the method: Method for Measuring Inhibition of the Type 5 Phosphodiesterase (PDE5) Activity:
As a source for human PDE5, platelets are used. For that purpose, 150 ml fresh blood from human donors anticoagulated with citrate [final concentration 0.3% (w/v)] is centrifuged at 200 g for 10 min to obtain the so-called platelet-rich-plasma (PRP) as a supernatant. 1/10 volume of ACD solution (85 mM Na3-citrate, 111 mM D-glucose, 71 mM citric acid, pH 4.4) is added to 9/10 volume of PRP. After centrifugation (1,400 g, 10 min) the cell pellet is resuspended in 3 ml homogenization buffer (NaCl 140 mM, KCl 3.8 mM, EGTA (ethylene glycol tetraacetic acid) 1 mM, MgCl2 1 mM, Tris-HCl 20 mM, beta-mercaptoethanol 1 mM, pH 8.2) plus protease-inhibitor mix giving rise to the final concentrations of 0.5 mM Pefablock (Roche), 10 μM Leupeptin, 5 μM Trypsininhibitor, 2 mM Benzamidin and 10 μM Pepstatin A. The suspension is sonified and thereafter centrifuged for 15 min at 10,000 g. The resulting supernatant (platelet lysate) is used for enzymatic testings.
PDE5A1 activity is inhibited by the compounds of the present subject matter in a modified SPA (scintillation proximity assay) test, supplied by Amersham Biosciences (see procedural instructions “phosphodiesterase [3H]cAMP SPA enzyme assay, code TRKQ 7090”), carried out in 96-well microtitre plates (MTP's). The test volume is 100 μl and contains 20 mM Tris buffer (pH 7.4), 0.1 mg of BSA (bovine serum albumin)/ml, 5 mM Mg^2+, 1 μM motapizone, 10 nM PDE2 inhibitor 2-(3,4-dimethoxybenzyl)-7-[(1R,2R)-2-hydroxy-1-(2-phenylethyl)propyl]-5-methylimidazo[5,1-t][1,2,4]triazin-4(3H)-one, 0.5 μM cGMP (cyclic guanosine monophosphate) (including about 50,000 cpm of [3H]cGMP as a tracer), 1 μl of the respective compound dilution in dimethylsulfoxide (DMSO) and sufficient PDE5-containing platelet lysat (10,000×g supernatant, see above) to ensure that 10-20 wt % of the cGMP is converted under the said experimental conditions. […] After a preincubation of 5 min at 37° C., the reaction is started by adding the substrate (cGMP) and the assay is incubated for a further 15 min; after that, it is stopped by adding SPA beads (50 μl). In accordance with the manufacturer's instructions, the SPA beads had previously been resuspended in water, but are then diluted 1:3 (v/v) in water; the diluted solution also contains 3 mM 8-methoxymethyl-3-isobutyl-1-methylxanthine (IBMX) to ensure a complete PDE activity stop. After the beads have been sedimented (>30 min), the MTP's are analyzed in commercially available luminescence detection devices. The corresponding IC50 values of the compounds for the inhibition of PDE activity are determined from the concentration-effect curves by means of non-linear regression.

Where only a bound is given, the exact number is not on record here.

With `COc1ccc(OCC2CC2)c(-c2ccnc3c(C(=O)NC4CN(C(=O)C(C)O)CC4O)c(C)[nH]c23)c1` (mixture of isomers) [Example F33, Diastereomeric mixture of 7-[2-(Cyclopropylmethoxy)-5-methoxyphenyl]-N-{(3R*,4R*)-4-hydroxy-1-[(2S)-2-hydroxypropanoyl]pyrrolidin-3-yl}-2-methyl-1H-pyrrolo[3,2-b]pyridine-3-carboxamide and Diastereomeric mixture of 7-[2-(cyclopropylmethoxy)-5-methoxyphenyl]-N-{(3S*,4S*)-4-hydroxy-1-[(2S)-2-hydroxypropanoyl]pyrrolidin-3-yl}-2-methyl-1H-pyrrolo[3,2-b]pyridine-3-carboxamide], the IC50 was 1 to 10 nM.

For the compound `CC(=O)N1CC[C@@H](NC(=O)c2c(C)[nH]c3c(-c4cc(F)ccc4OCC4CC4)ccnc23)[C@H](O)C1` (relative stereo) [Example E28, N-[(3R*,4R*)-1-Acetyl-3-hydroxypiperidin-4-yl]-7-[2-(cyclopropylmethoxy)-5-fluorophenyl]-2-methyl-1H-pyrrolo[3,2-b]pyridine-3-carboxamide], the IC50 was 1 to 10 nM.

Turning to `CCC(=O)N1CC[C@@H](NC(=O)c2c(C)[nH]c3c(-c4cc(F)ccc4OCC4CC4)ccnc23)[C@H](O)C1` (relative stereo) [Example E29, 7-[2-(Cyclopropylmethoxy)-5-fluorophenyl]-N-[(3R*,4R*)-3-hydroxy-1-propanoylpiperidin-4-yl]-2-methyl-1H-pyrrolo[3,2-b]pyridine-3-carboxamide], the IC50 is 1 to 10 nM.

Regarding `COCC(=O)N1CC[C@@H](NC(=O)c2c(C)[nH]c3c(-c4cc(F)ccc4OCC4CC4)ccnc23)[C@H](O)C1` (relative stereo) [Example E30, 7-[2-(Cyclopropylmethoxy)-5-fluorophenyl]-N-[(3R*,4R*)-3-hydroxy-1-(methoxyacetyl)piperidin-4-yl]-2-methyl-1H-pyrrolo[3,2-b]pyridine-3-carboxamide], the IC50 was 1 to 10 nM.

For the compound `COc1ccc(OCC2CC2)c(-c2ccnc3c(C(=O)N[C@@H]4CN(C(C)=O)C[C@H]4O)c(C)[nH]c23)c1` (relative stereo) [Example E49, N-[(3R*,4R*)-1-Acetyl-4-hydroxypyrrolidin-3-yl]-7-[2-(cyclopropylmethoxy)-5-methoxyphenyl]-2-methyl-1H-pyrrolo[3,2-b]pyridine-3-carboxamide], the IC50 was 1 to 10 nM.

For `CCC(=O)N1C[C@@H](O)[C@H](NC(=O)c2c(C)[nH]c3c(-c4cc(OC)ccc4OCC4CC4)ccnc23)C1` (relative stereo) [Example E50, 7-[2-(Cyclopropylmethoxy)-5-methoxyphenyl]-N-[(3R*,4R*)-4-hydroxy-1-propanoylpyrrolidin-3-yl]-2-methyl-1H-pyrrolo[3,2-b]pyridine-3-carboxamide], the IC50 was 1 to 10 nM.

Consider `COCC(=O)N1C[C@@H](O)[C@H](NC(=O)c2c(C)[nH]c3c(-c4cc(OC)ccc4OCC4CC4)ccnc23)C1` (relative stereo) [Example E51, 7-[2-(Cyclopropylmethoxy)-5-methoxyphenyl]-N-[(3R*,4R*)-4-hydroxy-1-(methoxyacetyl)pyrrolidin-3-yl]-2-methyl-1H-pyrrolo[3,2-b]pyridine-3-carboxamide], for which the IC50 was 1 to 10 nM.

`COc1cc(-c2ccnc3c(C(=O)N[C@@H]4CN(C(C)=O)C[C@H]4O)c(C)[nH]c23)c(OCC2CC2)cc1F` (relative stereo) [Example E70, N-[(3R*,4R*)-1-Acetyl-4-hydroxypyrrolidin-3-yl]-7-[2-(cyclopropylmethoxy)-4-fluoro-5-methoxyphenyl]-2-methyl-1H-pyrrolo[3,2-b]pyridine-3-carboxamide]: the IC50 is less than 1 nM.

For the compound `CCC(=O)N1C[C@@H](O)[C@H](NC(=O)c2c(C)[nH]c3c(-c4cc(OC)c(F)cc4OCC4CC4)ccnc23)C1` (relative stereo) [Example E71, 7-[2-(Cyclopropylmethoxy)-4-fluoro-5-methoxyphenyl]-N-[(3R*,4R*)-4-hydroxy-1-propanoylpyrrolidin-3-yl]-2-methyl-1H-pyrrolo[3,2-b]pyridine-3-carboxamide], the IC50 was less than 1 nM.

Consider `COCC(=O)N1C[C@@H](O)[C@H](NC(=O)c2c(C)[nH]c3c(-c4cc(OC)c(F)cc4OCC4CC4)ccnc23)C1` (relative stereo) [Example E72, 7-[2-(Cyclopropylmethoxy)-4-fluoro-5-methoxyphenyl]-N-[(3R*,4R*)-4-hydroxy-1-(methoxyacetyl)pyrrolidin-3-yl]-2-methyl-1H-pyrrolo[3,2-b]pyridine-3-carboxamide], for which the IC50 was less than 1 nM.

In the case of `COc1cc(-c2ccnc3c(C(=O)N[C@@H]4CCN(C(C)=O)C[C@H]4O)c(C)[nH]c23)c(OCC2CC2)cc1F` (relative stereo) [Example E73, N-[(3R*,4R*)-1-Acetyl-3-hydroxypiperidin-4-yl]-7-[2-(cyclopropylmethoxy)-4-fluoro-5-methoxyphenyl]-2-methyl-1H-pyrrolo[3,2-b]pyridine-3-carboxamide], the IC50 is less than 1 nM.

Regarding `CCC(=O)N1CC[C@@H](NC(=O)c2c(C)[nH]c3c(-c4cc(OC)c(F)cc4OCC4CC4)ccnc23)[C@H](O)C1` (relative stereo) [Example E74, 7-[2-(Cyclopropylmethoxy)-4-fluoro-5-methoxyphenyl]-N-[(3R*,4R*)-3-hydroxy-1-propanoylpiperidin-4-yl]-2-methyl-1H-pyrrolo[3,2-b]pyridine-3-carboxamide], the IC50 was less than 1 nM.

`COCC(=O)N1CC[C@@H](NC(=O)c2c(C)[nH]c3c(-c4cc(OC)c(F)cc4OCC4CC4)ccnc23)[C@H](O)C1` (relative stereo) [Example E75, 7-[2-(Cyclopropylmethoxy)-4-fluoro-5-methoxyphenyl]-N-[(3R*,4R*)-3-hydroxy-1-(methoxyacetyl)piperidin-4-yl]-2-methyl-1H-pyrrolo[3,2-b]pyridine-3-carboxamide]: the IC50 was less than 1 nM.

Regarding `Cc1[nH]c2c(-c3cc(F)ccc3OCC3CC3)ccnc2c1C(=O)N[C@@H]1CCN(C(=O)CO)C[C@H]1O` (relative stereo) [Example F18, 7-[2-(Cyclopropylmethoxy)-5-fluorophenyl]-N-[rel.(3R,4R)-3-hydroxy-1-(hydroxyacetyl)piperidin-4-yl]-2-methyl-1H-pyrrolo[3,2-b]pyridine-3-carboxamide], the IC50 is 1 to 10 nM.

Turning to `COc1ccc(OCC2CC2)c(-c2ccnc3c(C(=O)N[C@@H]4CN(C(=O)CO)C[C@H]4O)c(C)[nH]c23)c1` (relative stereo) [Example F32, 7-[2-(Cyclopropylmethoxy)-5-methoxyphenyl]-N-[(3R*,4R*)-4-hydroxy-1-(hydroxyacetyl)pyrrolidin-3-yl]-2-methyl-1H-pyrrolo[3,2-b]pyridine-3-carboxamide], the IC50 was 1 to 10 nM.

Turning to `COc1cc(-c2ccnc3c(C(=O)N[C@@H]4CN(C(=O)CO)C[C@H]4O)c(C)[nH]c23)c(OCC2CC2)cc1F` (relative stereo) [Example F46, 7-[2-(Cyclopropylmethoxy)-4-fluoro-5-methoxyphenyl]-N-[(3R*,4R*)-4-hydroxy-1-(hydroxyacetyl)pyrrolidin-3-yl]-2-methyl-1H-pyrrolo[3,2-b]pyridine-3-carboxamide], the IC50 was less than 1 nM.

On to `COc1cc(-c2ccnc3c(C(=O)N[C@@H]4CCN(C(=O)CO)C[C@H]4O)c(C)[nH]c23)c(OCC2CC2)cc1F` (relative stereo) [Example F48, 7-[2-(Cyclopropylmethoxy)-4-fluoro-5-methoxyphenyl]-N-[(3R*,4R*)-3-hydroxy-1-(hydroxyacetyl)piperidin-4-yl]-2-methyl-1H-pyrrolo[3,2-b]pyridine-3-carboxamide], for which the IC50 was less than 1 nM.

Regarding `COCC(=O)N1CCC(NC(=O)c2c(C)[nH]c3c(-c4c(OCC5CC5)ccc5c4OCO5)ccnc23)CC1` [Example E03, 7-[5-(Cyclopropylmethoxy)-1,3-benzodioxol-4-yl]-N-[1-(methoxyacetyl)piperidin-4-yl]-2-methyl-1H-pyrrolo[3,2-b]pyridine-3-carboxamide], the IC50 is less than 1 nM.

For the origin of these results see patent US8816085B2 (Takeda GmbH, priority 2009, dated 2014).
